{"source": "paper PMC4474394", "about": "(OncoTargets and therapy, 2015)", "assay": "In vivo biodistribution in NCI-H157-bearing BALB/c nude mice", "conditions": "99mTc-labeled peptide, judged from weak accumulation in brain tissue"}
{"sequence": "TMPFLFCNVNDVCNFASRNDYSKKK [T7]", "values": [{"measurement": "Blood–brain barrier penetration", "result": "poor"}]}
